Measurements published in ChEMBL document CHEMBL1201862, “PubChem BioAssay data set” (2004).
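These data come from cells grown in 96-well plates and exposed to compound for 48 hours at five concentrations. At the GI50, growth is halved.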 The source made the active and inactive calls. No stated cut-off is given here; in the data, active = GI50 up to about 1.1 µM and inactive = higher.

What was measured:
Assay in all cases: growth of human tumour cells (NCI), 48 h
LOX IMVI = tested on: LOX IMVI
NCI/ADR-RES = tested on: NCI/ADR-RES
SK-MEL-2 = tested on: SK-MEL-2
HOP-92 = tested on: HOP-92
OVCAR-4 = tested on: OVCAR-4
EKVX = tested on: EKVX
A498 = tested on: A498
NCI-H522 = tested on: NCI-H522
HCC 2998 = tested on: HCC 2998
MDA-N = tested on: MDA-N
NCI-H23 = tested on: NCI-H23
SNB-75 = tested on: SNB-75
UACC-257 = tested on: UACC-257
CAKI-1 = tested on: CAKI-1
PC-3 = tested on: PC-3
MCF7 = tested on: MCF7
TK-10 = tested on: TK-10
HCT-116 = tested on: HCT-116
SN12C = tested on: SN12C

Measured: GI50

Cc1cccc(/C=N/NC(=S)Nc2ccccc2)n1
inactive: LOX IMVI 2.67 µM | NCI/ADR-RES 2.88 µM | SK-MEL-2 3.2 µM | HOP-92 5.15 µM | OVCAR-4 6.31 µM | EKVX 5.97 µM | A498 15.3 µM | NCI-H522 1.48 µM | HCC 2998 5.64 µM | MDA-N 4 µM | NCI-H23 6.18 µM | SNB-75 3.67 µM | UACC-257 1.82 µM | CAKI-1 5.19 µM | PC-3 6 µM | MCF7 2.89 µM | TK-10 2.43 µM | HCT-116 3.47 µM | SN12C 2.8 µM

O=C(/C=C\Nc1ccccc1O)C(Cl)(Cl)Cl
inactive: LOX IMVI 31.8 µM | NCI/ADR-RES 99.3 µM | SK-MEL-2 43.2 µM | HOP-92 70.5 µM | OVCAR-4 39.1 µM | EKVX 45.7 µM | A498 35.6 µM | NCI-H522 22.6 µM | HCC 2998 26.3 µM | MDA-N 25.3 µM | NCI-H23 35.7 µM | SNB-75 30.3 µM | UACC-257 33.5 µM | CAKI-1 34.9 µM | PC-3 37.7 µM | MCF7 20.8 µM | TK-10 78.5 µM | HCT-116 37.8 µM | SN12C 72.8 µM

O=C1OC(c2ccccc2)=N/C1=C\c1cccc(F)c1
inactive: LOX IMVI 22.2 µM | NCI/ADR-RES 27.7 µM | SK-MEL-2 > 100 µM | HOP-92 > 100 µM | OVCAR-4 31.3 µM | EKVX > 100 µM | A498 > 100 µM | NCI-H522 16 µM | HCC 2998 72.3 µM | MDA-N 56.6 µM | NCI-H23 > 100 µM | SNB-75 64.3 µM | UACC-257 32.7 µM | CAKI-1 > 100 µM | PC-3 > 100 µM | MCF7 > 100 µM | TK-10 > 100 µM | HCT-116 > 100 µM | SN12C > 100 µM

CC1(C)OC(=O)N(c2ccccc2)C12C=Cc1cccc([N+](=O)[O-])c1O2 (configuration not stated)
inactive: LOX IMVI 97.3 µM | NCI/ADR-RES 48.2 µM | SK-MEL-2 > 100 µM | HOP-92 > 100 µM | OVCAR-4 56.2 µM | EKVX 60.8 µM | A498 50.2 µM | NCI-H522 36.5 µM | HCC 2998 > 100 µM | MDA-N 42.5 µM | NCI-H23 55.3 µM | SNB-75 35.6 µM | UACC-257 47.6 µM | CAKI-1 > 100 µM | PC-3 31 µM | MCF7 79.3 µM | TK-10 > 100 µM | HCT-116 67 µM | SN12C > 100 µM

Cc1ccc(-c2c3c(n(C4OC(CO)C(O)C(O)C4O)c(=S)c2C#N)CC(C)(C)CC3=O)cc1 (configuration not stated)
inactive: LOX IMVI 48.3 µM | NCI/ADR-RES > 100 µM | SK-MEL-2 80.9 µM | HOP-92 68.7 µM | OVCAR-4 > 100 µM | A498 > 100 µM | NCI-H522 > 100 µM | HCC 2998 > 100 µM | MDA-N 46 µM | NCI-H23 > 100 µM | SNB-75 49.1 µM | UACC-257 > 100 µM | CAKI-1 > 100 µM | PC-3 41.1 µM | MCF7 45.7 µM | TK-10 > 100 µM | HCT-116 40.4 µM | SN12C > 100 µM

Oc1cccc2ccc(SSc3ccc4cccc(O)c4n3)nc12
inactive: LOX IMVI 18.2 µM | NCI/ADR-RES 26.1 µM | SK-MEL-2 19.1 µM | HOP-92 23 µM | OVCAR-4 16.1 µM | EKVX 29.3 µM | A498 19.2 µM | NCI-H522 15.8 µM | HCC 2998 5.56 µM | MDA-N 17.5 µM | NCI-H23 16.9 µM | SNB-75 14.7 µM | UACC-257 20.2 µM | CAKI-1 18.5 µM | PC-3 16.3 µM | MCF7 5.89 µM | TK-10 20.1 µM | HCT-116 18.2 µM | SN12C 17.9 µM

c1csc(-c2nccc3c2[nH]c2ccccc23)c1
inactive: LOX IMVI 20.5 µM | NCI/ADR-RES 22.2 µM | SK-MEL-2 21.8 µM | HOP-92 22.3 µM | OVCAR-4 18.2 µM | EKVX 46.6 µM | A498 15.3 µM | NCI-H522 15.8 µM | HCC 2998 21.8 µM | MDA-N 17.5 µM | NCI-H23 18.7 µM | SNB-75 14.1 µM | UACC-257 21.2 µM | CAKI-1 27.4 µM | PC-3 21.6 µM | MCF7 3.35 µM | TK-10 21.1 µM | HCT-116 16.3 µM | SN12C 16.8 µM
